Test results from patent US8722868B2, “Glycosyltransferase, novel glycosyltransferase gene, and novel sugar donor compound” (National University Corporation Tokyo University of …, priority 2009, dated 2014).

Tests used:
[1] = molecular target: T1, crude enzyme obtained from pink petals of a carnation (variety: "Beam Cherry") (glycosyltransferase) (Dianthus caryophyllus, UniProt E3W9M2); assay: Relative activity of crude carnation petal enzyme on each sugar donor (glycosyl transfer to cyanidin 3-glucoside, HPLC); type: biochemical; conditions: crude enzyme 61 μg, cyanidin β-glucoside 200 μM, sugar donor 500 μM, citric acid buffer pH 5.6, 30° C., 15 minutes, HPLC area of cyanidin 3,5-O-β diglucoside
T1 construct: Thus, a crude enzyme liquid was obtained; from tissue; host or cells: pink petals of carnation, variety Beam Cherry (ammonium sulfate precipitate, desalted)
T1 sequence (E3W9M2 31-502): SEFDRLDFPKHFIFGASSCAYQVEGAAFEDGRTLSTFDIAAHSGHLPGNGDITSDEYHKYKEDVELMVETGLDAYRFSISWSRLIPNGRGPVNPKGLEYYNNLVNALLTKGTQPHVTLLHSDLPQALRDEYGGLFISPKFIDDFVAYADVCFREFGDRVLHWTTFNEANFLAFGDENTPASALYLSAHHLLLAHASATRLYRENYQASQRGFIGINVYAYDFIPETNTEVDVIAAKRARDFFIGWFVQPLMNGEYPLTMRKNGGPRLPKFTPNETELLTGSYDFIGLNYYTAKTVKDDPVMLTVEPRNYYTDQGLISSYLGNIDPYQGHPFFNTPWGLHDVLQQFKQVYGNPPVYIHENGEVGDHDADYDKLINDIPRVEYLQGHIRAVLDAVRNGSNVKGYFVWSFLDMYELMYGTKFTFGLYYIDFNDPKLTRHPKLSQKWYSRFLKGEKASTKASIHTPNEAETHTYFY
Protocol: An enzyme reaction was carried out at 30° C. for 15 minutes in a reaction solution obtained by adding a citric acid buffer (pH 5.6) to a crude enzyme obtained from pink petals of a carnation (variety: “Beam Cherry”) (61 μg), cyanidin β-glucoside (200 μM), and a sugar donor (1-O-β-vanillyl glucose extracted from a carnation or any of synthesized 1-O-vanillyl glucose (in the α or β form), 1-O-isovanillyl glucose (in the α or β form), and 1-O-galloyl glucose (in the α or β form)) (500 μM) to a final volume of 30 μl. The reaction was terminated by adding a 20% phosphoric acid aqueous solution to the reaction liquid so as to result in a final phosphoric acid concentration of 1%, followed by centrifugation. The obtained supernatant was subjected to separation using an HPLC (Chromolith Speed ROD; 4.6×50 mm; Merck) with a linear gradient (5 minutes) of 18% to 28% liquid B containing eluent A (a 1.5% phosphoric acid aqueous solution) and eluent B (a 90% methanol aqueous solution) (flow rate: 3.0 ml/min; 520 nm), followed by analysis. The relative activity of the enzyme on each sugar donor was calculated based on the HPLC chromatogram area of a reaction product (cyanidin 3,5-O-β diglucoside) at a wavelength of 505 nm.

[2] = molecular target: T2, glycosyltransferase in crude enzyme extracted from petals of a delphinium (variety: "marine blue") (Delphinium grandiflorum, UniProt E3W9M3); assay: Detection of glycosyl transfer reaction with delphinium petal crude enzyme (HPLC); type: biochemical, delphinium (Delphinium grandiflorum L.); conditions: cyanidin 3-O-β-glucoside 200 μM, sugar donor 1 mM, pH 5.6, 30° C., 15 minutes
T2 construct: Glycosyltransferase activity was examined using a crude enzyme extracted from; from tissue
T2 sequence (E3W9M3 26-505): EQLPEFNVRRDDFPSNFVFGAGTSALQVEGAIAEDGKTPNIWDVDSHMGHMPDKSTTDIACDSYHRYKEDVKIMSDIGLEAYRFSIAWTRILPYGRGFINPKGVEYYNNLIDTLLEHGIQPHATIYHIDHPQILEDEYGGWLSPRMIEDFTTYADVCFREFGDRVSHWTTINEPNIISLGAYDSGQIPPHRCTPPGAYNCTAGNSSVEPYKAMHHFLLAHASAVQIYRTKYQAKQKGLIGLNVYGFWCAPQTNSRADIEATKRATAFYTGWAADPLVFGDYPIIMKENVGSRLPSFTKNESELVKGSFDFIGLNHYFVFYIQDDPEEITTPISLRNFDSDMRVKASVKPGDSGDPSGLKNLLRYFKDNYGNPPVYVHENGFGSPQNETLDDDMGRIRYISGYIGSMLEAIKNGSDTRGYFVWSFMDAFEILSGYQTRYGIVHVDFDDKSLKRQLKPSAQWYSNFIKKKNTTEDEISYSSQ
Protocol: Glycosyltransferase activity was examined using a crude enzyme extracted from pink petals of a carnation (variety: “Beam Cherry”) or petals of a delphinium (variety: “marine blue”) in the manner described in Example 1. Cyanidin 3-O-β-glucoside (final concentration: 200 μM) and 1-O-β-p-hydroxybenzoyl glucose (final concentration: 1 mM) were used as a receptor and a sugar donor, respectively. The pH was adjusted to 5.6 with a citric acid buffer, followed by a glycosyltransferase reaction at 30° C. for 15 minutes. The reaction was terminated with phosphoric acid (final concentration: 1%), followed by centrifugation for the removal of insoluble matter. Then, the supernatant was analyzed by HPLC. HPLC analysis was carried out using a 1.5% phosphoric acid aqueous solution and methanol as eluents and a Wakopak Handy ODS column (4.6×250 mm, Wako Pure Chemical Industries, Ltd.). Separation was carried out at a flow rate of 1 ml/min with a linear gradient of 20% to 55% methanol (20 minutes). A reaction product was confirmed using a photodiode array detector.

| Compound | Relative activity of an enzyme on a sugar donor (when synthetic 1-O-β-vanillyl glucose is set as 100) [1] | Relative activity of an enzyme on a sugar donor (when synthetic 1-O-β-vanillyl glucose is set as 100) ([1]; listed as 1-O-β-vanillyl glucose (from carnation)) | Recognition as sugar donor by delphinium glycosylation enzyme [2] |
| --- | --- | --- | --- |
| COc1cc(C(=O)OC2OC(CO)C(O)C(O)C2O)ccc1O (stereo not drawn) | 100 | 97.9 | – |
| O=C(OC1OC(CO)C(O)C(O)C1O)c1ccc(O)cc1 (stereo not drawn) [1-O-β-p-hydroxybenzoyl glucose] | – | – | recognize 1-O-β-p-hydroxybenzoyl glucose as a sugar donor |
